# Source: article PMC10620772, “Design, synthesis, and biological evaluation of new pyrimidine-5-carbonitrile derivatives as novel anti-cancer, dual EGFR^WT/COX-2 inhibitors with docking studies” (RSC Advances, 2023)
# How the values were obtained:
# [1] = system: MALME-3M; set-up: method as in PMID 32115728, PMID 32959865; conditions: cited from earlier work
# [2] = set-up: method as in PMID 26764192, PMID 22249410, PMID 21414695; conditions: cited from earlier work
# [3] = system: active caspase-3 in Colo 205 cells; assay: Caspase-3 ELISA; assay type: cell-based, human; conditions: Colo_205, treated at IC50
# Description: Among the death proteases, the caspases family of cysteine-dependent aspartate-directed proteases is significant. There are multiple levels where caspase activation and activity are regulated.[43] Caspases are activated during apoptosis, which eventually results in cell death by deactivating a number of signals.[44] One of the crucial survival signals, EGFR, may be the target of caspase activation to ensure the completion of apoptosis.[45] Additionally, it has been reported that activating caspase-3 through COX-2 inhibition enhances apoptosis.[40] Therefore, the impact of the novel compounds on the level of caspase 3 was examined.
# (1) Into the antibody coated wells add 100 μl of standard diluent buffer excepts wells wich detected to be the chromogen blank, then add 100 μl. […] (10) Decant liquid from wells then wash, (11) pipette 100 μl of chromogen substrate to all wells, The well fluid will start to become blue. (12) 30 minutes should be spent incubating at room temperature in the dark. (13) To each well, add 100 μl of stop solution. To mix, lightly tap the plate's edge. The well solution should transform from blue to yellow. (14) Read the absorbance of each well using a microtiter plate reader at 450 nm. (15) Draw the standard curve using a curve fitting program. (16) The standard curve can be used to determine the concentrations for unknown samples and controls.[55]
smiles,measurement,setting,value
CC(C)CSc1nc(Nc2ccc(C(=O)O)cc2)c(C#N)c(-c2ccccc2)n1 [F],GI value,[1],152.04%
COc1ccc(-c2nc(-c3ccc(Cl)cc3)[nH]c(=O)c2C#N)cc1 [I],antinociceptive activity compared to control,[2],more than 88%
"CN[C@@H]1C[C@H]2O[C@@](C)([C@@H]1OC)n1c3ccccc3c3c4c(c5c6ccccc6n2c5c31)C(=O)NC4 [Staurosporine, reference compound]",Caspase 3,[3],766.2 ± 10.4 pg·mL
